Assay results published in patent US20060241132A1, “Spiro derivatives and adhesion molecule inhibitors comprising the same as active ingredient” (Toray Industries, Inc. A Corporation of Japan, priority 2002, published 2006).

Experiments:
[1] = molecular target: soluble VLA-4 (Homo sapiens, UniProt P05556+P13612); test: Inhibition of binding between CS-1 peptide and soluble VLA-4; conditions: absorbance at 490 nm, read-out: Inhibitory activity (IC50: nM)
Procedure: The inhibitory activity of the compound according to the present invention against the adhesion of VLA-4 may be determined by using an adhesion-measuring system in which the adhesion between VLA-4-expressing cells such as Ramos cells or Jurkat cells and fibronectin or fibronectin fragment such as a peptide containing CS-1 sequence (Gly Pro Glu He Leu Asp Val Pro Ser Thr) (hereinafter referred to as “CS-1 peptide”) immobilized on an immunoplate is measured. Alternatively, a binding-measuring system in which the adhesion between VLA-4 protein and fibronectin or fibronectin fragment such as CS-1 peptide immobilized on an immunoplate is measured may be used. In the present invention, it is preferred to evaluate the inhibitory activity of a compound using a binding-measuring system of soluble VLA-4 with CS-1 peptide (WO 98/32771), but the method is not restricted thereto. When testing the inhibitory effect of a compound, it is preferred to mix the soluble VLA-4 and the test compound beforehand.
Inhibitory Effect of Compounds Against Binding between CS-1 Peptide and Soluble VLA-4
The test compounds were evaluated in accordance with the method described in WO 98/32771. That is, in accordance with the teaching of a report (J. Bio. Chem., 262, 6886 (1987)), a conjugate between a peptide (Gys Leu His Gly Pro Glu Glu Ile Leu Asp Val Pro Ser Thr) containing CS-1 sequence and rabbit IgG (Sigma) was prepared. […]
Each compound and soluble VLA-4 (100 μl) were preliminarily reacted at room temperature for 20 minutes, and then the resulting mixture was allowed to react with the CS-1 peptide in each well at 30° C. for 3 hours. […] Then o-phenylenediamine as a substrate was added to color the reaction solution, and the absorbance at 490 nm was measured. From this absorbance, the binding inhibitory activity of each compound was determined.

[2] = system: DNFB-induced ear swelling in Balb/c mouse; test: Mouse allergic inflammation: DNFB-induced ear swelling after anti-DNP IgE sensitization; format: in vivo; conditions: male Balb/c mouse, anti-DNP IgE sensitized
Procedure: Inhibitory Effect of Compounds Against Mouse Allergic Inflammation
Using a seven-week old male Balb/c mouse (Charles River Japan, Inc.), sensitization was carried out by intravenously administering anti-DNP mouse IgE antibody. Twenty-four hours after sensitization, 0.38% DNFB (2,4-dinitrofluorobenzene) which was dissolved in a mixed solution of acetone:olive oil at 4:1 was applied to the right auricle of the mouse to induce inflammation. The thickness of both auricles was measured each hour after induction with a thickness gauge to calculate the ear swelling ratio (%) after induction versus pre-induction. The test compounds were dissolved in ethanol for applying to the auricle before induction.

soluble VLA-4, sequence (P13612 35-977 limits assumed): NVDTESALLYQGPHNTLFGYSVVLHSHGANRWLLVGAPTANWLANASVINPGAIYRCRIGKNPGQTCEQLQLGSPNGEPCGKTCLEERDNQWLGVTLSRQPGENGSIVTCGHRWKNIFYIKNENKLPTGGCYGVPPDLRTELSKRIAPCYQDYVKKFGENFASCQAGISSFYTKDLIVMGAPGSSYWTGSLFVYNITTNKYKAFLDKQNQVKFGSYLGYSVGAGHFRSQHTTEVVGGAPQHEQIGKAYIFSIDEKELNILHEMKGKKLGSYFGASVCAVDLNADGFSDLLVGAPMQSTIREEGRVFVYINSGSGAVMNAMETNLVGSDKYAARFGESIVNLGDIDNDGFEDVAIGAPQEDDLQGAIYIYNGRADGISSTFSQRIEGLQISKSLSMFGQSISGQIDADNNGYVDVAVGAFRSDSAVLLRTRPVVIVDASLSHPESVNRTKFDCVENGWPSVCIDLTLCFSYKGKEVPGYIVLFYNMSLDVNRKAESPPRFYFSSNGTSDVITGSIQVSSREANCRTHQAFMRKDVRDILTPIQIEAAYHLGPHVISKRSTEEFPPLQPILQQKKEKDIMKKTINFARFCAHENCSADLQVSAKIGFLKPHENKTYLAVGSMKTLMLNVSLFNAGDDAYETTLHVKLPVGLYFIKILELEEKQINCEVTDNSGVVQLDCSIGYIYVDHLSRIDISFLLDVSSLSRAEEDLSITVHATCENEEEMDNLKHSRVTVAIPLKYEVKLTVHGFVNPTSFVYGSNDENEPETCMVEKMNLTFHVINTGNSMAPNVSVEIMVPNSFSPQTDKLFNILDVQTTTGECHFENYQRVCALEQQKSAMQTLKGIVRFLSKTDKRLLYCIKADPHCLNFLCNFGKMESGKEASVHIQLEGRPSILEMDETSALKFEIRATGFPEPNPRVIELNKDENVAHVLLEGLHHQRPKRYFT
soluble VLA-4, sequence (P05556 21-728 limits assumed): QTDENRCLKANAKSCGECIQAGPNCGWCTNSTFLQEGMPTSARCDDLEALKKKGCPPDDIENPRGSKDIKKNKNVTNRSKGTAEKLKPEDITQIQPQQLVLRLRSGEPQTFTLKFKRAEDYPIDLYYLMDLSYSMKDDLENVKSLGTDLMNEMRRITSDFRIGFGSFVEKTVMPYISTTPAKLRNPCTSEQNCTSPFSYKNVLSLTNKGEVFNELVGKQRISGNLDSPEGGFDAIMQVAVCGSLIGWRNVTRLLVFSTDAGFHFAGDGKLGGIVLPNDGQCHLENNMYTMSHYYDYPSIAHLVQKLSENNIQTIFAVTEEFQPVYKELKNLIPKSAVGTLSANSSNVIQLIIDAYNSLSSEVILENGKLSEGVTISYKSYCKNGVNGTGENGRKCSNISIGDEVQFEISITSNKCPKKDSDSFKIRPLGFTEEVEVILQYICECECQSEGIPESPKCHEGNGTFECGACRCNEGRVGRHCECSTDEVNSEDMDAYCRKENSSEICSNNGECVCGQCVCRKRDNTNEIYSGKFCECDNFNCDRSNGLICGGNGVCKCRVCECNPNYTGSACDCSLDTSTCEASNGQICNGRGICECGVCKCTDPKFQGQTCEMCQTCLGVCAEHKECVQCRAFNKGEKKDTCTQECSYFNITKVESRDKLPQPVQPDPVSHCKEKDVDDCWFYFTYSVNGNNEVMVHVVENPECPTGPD

Row | Structure (SMILES) | IC50 [1] | ED 50 value, suppression of the increase in the ratio of ear swelling ([2]; 0.38% DNFB on right auricle, compound in ethanol applied to the auricle before induction) | suppression of the increase in the ratio of ear swelling from DNFB induction ([2]; DNFB-induced, compound applied to the auricle before induction)
1 | Cc1cccc(Cl)c1S(=O)(=O)NC(CNC(=O)N1CCC2(CC1)C(=O)N(C)CN2c1ccccc1)C(=O)O (centres unmarked) [Compound 8, 2-(((2-Chloro-6-methylphenyl)sulfonyl)amino)-3-((2,4,8-triaza-2-methyl-1-oxo-4-phenylspiro[4.5]dec-8-yl)carbonylamino)propanoic acid] | 110 nM | – | –
2 | CC(=O)N1CCC[C@H]1C(=O)NC(CNC(=O)N1CCC2(CC1)C(=O)NCN2c1ccccc1)C(=O)O (stereo partly drawn) [Compound 16, 2-(((2S)-1-Acetylpyrrolidine-2-yl)carbonylamino)-3-((2,4,8-triaza-1-oxo-4-phenylspiro[4.5]dec-8-yl)carbonylamino)propanoic acid] | 110 nM | 0.8 mg/kg | suppressed the increase in the ratio of ear swelling in a dose-dependent manner
3 | CC(=O)N1CCCCC1C(=O)NC(CNC(=O)N1CCC2(CC1)C(=O)NCN2c1ccccc1)C(=O)O (centres unmarked) [Compound 18, 2-((1-Acetyl(2-piperidyl))carbonylamino)-3-((2,4,8-triaza-1-oxo-4-phenylspiro[4.5]dec-8-yl)carbonylamino)propanoic acid] | 65 nM | – | –
